Data set [1] deals with T1, Furin (Homo sapiens, UniProt P09958). The data set can be described thus: Inhibition of soluble human furin using boc-RVRR-MCA as substrate incubated for 45 mins and measured by fluorescence assay.
Data set [2] in a line: Dissociation constant, pKa of the compound. Type of data set: physicochemical.
In data set [3] the target is T1, Furin. The data set can be described thus: Inhibition of furin (unknown origin).
In data set [4] the test system is Mus musculus. The data set can be described thus: Antifibrotic activity against bleomycin-induced mouse lung fibrosis model assessed as inhibition of TGF-beta secretion in lung at 10 mg/kg, ip administered twice daily. It counts as functional.
Data set [5] concerns Mus musculus. Briefly: Antifibrotic activity against bleomycin-induced mouse lung fibrosis model assessed as inhibition of hydroxyproline content in lung at 10 mg/kg, ip administered twice daily. It counts as functional.
The target of data set [6] is T1, Furin. The data set can be described thus: Inhibition of furin in human U2OS cells measured after 24 hrs by fluorescence assay. Type of data set: cell-based.
The next data set addresses Prothrombin (Bos taurus, UniProt P00735). The data set can be described thus: Inhibition of bovine thrombin using Tos-Gly-Pro-Arg-AMC as substrate and measured by fluorescence assay.
A further data set concerns the target Coagulation factor X (Homo sapiens, UniProt P00742). The data set can be described thus: Inhibition of human fXa using Mes-DArg-Pro-Arg-AMC as substrate and measured by fluorescence assay.
The target in data set [7] is T1, Furin. The data set can be described thus: Inhibition of recombinant human furin using Phac-Arg-Val-Arg-Arg-AMC as substrate incubated for 30 mins and measured by microplate reader method.
A further data set addresses Plasminogen (Homo sapiens, UniProt P00747). The data set can be described thus: Inhibition of human plasmin using Mes-DArg-Phe-Arg-AMC as substrate and measured by fluorescence assay.
The nature of data set [8]: Inhibition of porcine trypsin using Mes-DArg-Gly-Arg-AMC as substrate and measured by fluorescence assay. Also noted: species or system Sus scrofa.
For data set [9], the system named is Mus musculus. The data set can be described thus: Antifibrotic activity against bleomycin-induced mouse lung fibrosis model assessed as inhibition of TGF-beta secretion in lung at 10 mg/kg, ip administered once daily. It counts as functional.
Data set [10] relates to Mus musculus. The data set can be described thus: Antifibrotic activity against bleomycin-induced mouse lung fibrosis model assessed as inhibition of hydroxyproline content in lung at 10 mg/kg, ip administered once daily. Type of data set: functional.
Data set [11] in a line: Inhibition of human papilloma virus-11 replication in HEK293 cells measured by transient DNA replication assay. It counts as functional, cell-based. Conditions: human papillomavirus 11, HEK293.
Data set [12] concerns the target T2, Proprotein convertase subtilisin/kexin type 6 (Homo sapiens, UniProt P29122).
T2 sequence (P29122 whole entry): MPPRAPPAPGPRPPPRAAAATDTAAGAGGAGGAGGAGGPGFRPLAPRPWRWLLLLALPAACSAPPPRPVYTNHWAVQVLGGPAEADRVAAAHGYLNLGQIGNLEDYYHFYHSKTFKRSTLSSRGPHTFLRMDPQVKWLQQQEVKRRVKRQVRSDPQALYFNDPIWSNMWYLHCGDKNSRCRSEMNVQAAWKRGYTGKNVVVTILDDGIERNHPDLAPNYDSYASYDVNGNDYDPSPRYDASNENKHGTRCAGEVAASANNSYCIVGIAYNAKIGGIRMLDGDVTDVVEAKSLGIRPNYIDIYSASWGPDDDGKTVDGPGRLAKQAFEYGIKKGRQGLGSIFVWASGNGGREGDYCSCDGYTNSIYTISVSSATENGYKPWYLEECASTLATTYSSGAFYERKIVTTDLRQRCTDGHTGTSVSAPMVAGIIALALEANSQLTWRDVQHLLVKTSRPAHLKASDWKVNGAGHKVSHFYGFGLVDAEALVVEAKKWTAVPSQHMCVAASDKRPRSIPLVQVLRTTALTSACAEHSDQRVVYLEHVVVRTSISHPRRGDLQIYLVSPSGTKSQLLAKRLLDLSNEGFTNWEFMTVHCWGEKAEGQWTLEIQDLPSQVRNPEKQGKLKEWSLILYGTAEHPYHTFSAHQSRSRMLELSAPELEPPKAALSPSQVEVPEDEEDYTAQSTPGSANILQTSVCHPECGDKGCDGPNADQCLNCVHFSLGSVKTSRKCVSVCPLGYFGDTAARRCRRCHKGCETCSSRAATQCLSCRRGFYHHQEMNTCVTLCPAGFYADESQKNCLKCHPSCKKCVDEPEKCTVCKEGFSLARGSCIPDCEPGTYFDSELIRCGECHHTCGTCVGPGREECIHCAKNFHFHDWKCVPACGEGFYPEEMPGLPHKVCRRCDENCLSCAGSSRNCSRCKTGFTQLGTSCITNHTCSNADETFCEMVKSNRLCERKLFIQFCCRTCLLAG
The data set can be described thus: Inhibition of PACE4 (unknown origin).

In data set [13] the test system is Mus musculus. The data set can be described thus: Antifibrotic activity against bleomycin-induced mouse lung fibrosis model assessed as inhibition of TGF-beta secretion in lung at 10 mg/kg, po administered once daily. Type of data set: functional.
For data set [14], the system named is Mus musculus. Briefly: Antifibrotic activity against bleomycin-induced mouse lung fibrosis model assessed as inhibition of hydroxyproline content in lung at 10 mg/kg, po administered once daily. It counts as functional.
In data set [15] the target is T1, Furin. The data set can be described thus: Inhibition of Tev-FLAG-His-tagged furin (108 to 574 residues) (unknown origin) using FAM-QRVRRAVGIDK-TAMRA as substrate and measured after 2 hrs.
For the next data set, the system named is Vero. The data set can be described thus: Protective activity against Escherichia coli O157:H7 Shiga toxin-induced cytotoxicity in monkey Vero cells measured by LDH assay. It counts as functional, cell-based. Conditions: Chlorocebus sabaeus.
The nature of data set [16]: Stability in mouse plasma assessed as half-life. It counts as ADME, cell-free.
The nature of data set [17]: Stability in mouse plasma assessed as compound remaining measured after 24 hrs. Type of data set: ADME, cell-free. Conditions: read-out: Stability.
Data set [18] concerns the target T1, Furin. Briefly: Inhibition of recombinant human furin protease.

The structures appear in SMILES notation. Peptide text beside a SMILES is read from it. A value given as a limit tells only on which side of the number the result lay.

T1 sequence (P09958 whole entry): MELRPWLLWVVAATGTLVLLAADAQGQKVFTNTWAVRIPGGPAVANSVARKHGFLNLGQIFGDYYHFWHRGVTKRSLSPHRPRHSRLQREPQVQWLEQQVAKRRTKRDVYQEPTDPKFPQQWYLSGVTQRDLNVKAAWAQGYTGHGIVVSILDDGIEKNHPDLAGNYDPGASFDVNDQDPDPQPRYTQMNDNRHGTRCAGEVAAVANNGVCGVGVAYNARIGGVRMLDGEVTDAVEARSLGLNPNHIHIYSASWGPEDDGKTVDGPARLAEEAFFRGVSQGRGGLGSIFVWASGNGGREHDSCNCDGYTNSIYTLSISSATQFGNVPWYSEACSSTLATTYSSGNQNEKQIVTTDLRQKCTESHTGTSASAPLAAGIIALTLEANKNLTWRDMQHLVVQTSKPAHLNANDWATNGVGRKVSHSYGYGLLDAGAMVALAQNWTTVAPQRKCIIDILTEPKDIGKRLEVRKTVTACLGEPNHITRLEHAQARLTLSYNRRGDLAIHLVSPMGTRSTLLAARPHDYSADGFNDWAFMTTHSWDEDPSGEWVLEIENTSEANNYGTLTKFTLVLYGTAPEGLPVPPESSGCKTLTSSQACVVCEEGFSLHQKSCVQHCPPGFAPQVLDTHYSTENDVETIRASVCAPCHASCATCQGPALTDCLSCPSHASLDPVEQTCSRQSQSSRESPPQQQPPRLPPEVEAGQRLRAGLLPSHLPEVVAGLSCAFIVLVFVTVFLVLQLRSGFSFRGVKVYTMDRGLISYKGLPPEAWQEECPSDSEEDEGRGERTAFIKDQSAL
Chain of Coagulation factor X (P00742 41-179 limits assumed): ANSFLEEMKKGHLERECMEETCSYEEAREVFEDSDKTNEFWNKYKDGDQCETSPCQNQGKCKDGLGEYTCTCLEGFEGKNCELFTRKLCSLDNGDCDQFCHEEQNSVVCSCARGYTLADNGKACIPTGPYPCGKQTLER
Chain of Coagulation factor X (P00742 235-488 limits assumed): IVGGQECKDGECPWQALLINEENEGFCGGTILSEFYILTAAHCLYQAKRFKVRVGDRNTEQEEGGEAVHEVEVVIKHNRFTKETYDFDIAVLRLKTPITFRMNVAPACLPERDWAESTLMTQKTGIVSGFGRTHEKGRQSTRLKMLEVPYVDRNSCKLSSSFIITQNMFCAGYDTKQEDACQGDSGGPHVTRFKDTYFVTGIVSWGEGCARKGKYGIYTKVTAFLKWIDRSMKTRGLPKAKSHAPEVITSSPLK
Chain of Plasminogen (P00747 97-580 limits assumed): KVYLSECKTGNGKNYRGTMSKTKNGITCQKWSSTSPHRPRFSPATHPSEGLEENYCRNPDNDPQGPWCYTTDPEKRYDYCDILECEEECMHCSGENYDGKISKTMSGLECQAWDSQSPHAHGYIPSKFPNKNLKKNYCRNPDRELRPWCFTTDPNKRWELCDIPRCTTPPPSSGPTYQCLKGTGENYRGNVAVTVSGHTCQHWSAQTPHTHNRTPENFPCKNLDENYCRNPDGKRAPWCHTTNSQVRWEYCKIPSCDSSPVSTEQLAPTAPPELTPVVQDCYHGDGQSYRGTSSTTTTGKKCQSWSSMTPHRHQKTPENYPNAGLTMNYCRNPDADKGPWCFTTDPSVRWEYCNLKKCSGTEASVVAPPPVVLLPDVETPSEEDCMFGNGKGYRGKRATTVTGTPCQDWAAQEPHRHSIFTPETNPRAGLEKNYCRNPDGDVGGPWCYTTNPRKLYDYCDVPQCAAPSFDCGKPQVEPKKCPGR
Chain of Plasminogen (P00747 581-810 limits assumed): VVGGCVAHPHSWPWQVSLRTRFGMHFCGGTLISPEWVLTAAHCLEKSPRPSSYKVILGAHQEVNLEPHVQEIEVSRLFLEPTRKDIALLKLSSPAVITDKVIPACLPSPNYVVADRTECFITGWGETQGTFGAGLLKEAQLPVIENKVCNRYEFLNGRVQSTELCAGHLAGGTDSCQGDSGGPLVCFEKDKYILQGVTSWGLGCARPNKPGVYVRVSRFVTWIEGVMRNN

On to `N=C(N)N/N=C/c1ccccc1OCc1ccc(Cl)cc1`, for which the Ki at Furin [1] amounted to 25.3 µM.

For the compound `CC(C)(C)[C@H](NC(=O)[C@H](CCCNC(=N)N)NC(=O)Cc1ccc(CNC(=N)N)cc1)C(=O)N[C@@H](CCCNC(=N)N)C(=O)NCc1ccc(CN)cc1`, the pKa in [2] was determined as 9.28. Also, on Furin [3], the IC50 is 0.00953 µM and the Ki worked out at 2.52 nM.

Regarding `CC(=O)NCC1CCN(Cc2cc(Oc3cnc(N4CCN(CCC(=O)O)CC4)nc3)nc(-c3cc(Cl)cc(Cl)c3)c2)CC1`, the values for the inhibition in vivo at 10 mg/kg with Mus musculus [4] and in the data set on Mus musculus [5] were 86% and 60%, respectively. On Furin [6], this compound showed a pXC50 of 8.

In the case of `CC(=O)NCC1CCN(Cc2cc(Oc3ccc(N4CCN(CC(=O)O)CC4)nc3)nc(-c3cc(Cl)cc(Cl)c3)c2)CC1`, the inhibition in vivo at 10 mg/kg came to 43% in the data set on Mus musculus [4] and 16% in the data set with Mus musculus [5]. Moreover, the pXC50 at Furin [6] stood at 6.9.

Consider `CC(C)(C)[C@H](NC(=O)[C@H](CCCONC(=N)N)NC(=O)Cc1ccc(CNC(=N)N)cc1)C(=O)N[C@@H](CCCONC(=N)N)C(=O)NCc1ccc(C(=N)N)cc1`, for which the inhibition constant Ki on Prothrombin was more than 3 µM; at Coagulation factor X, more than 3 µM; on Furin [7], 10.1 pM; on Plasminogen, more than 3 µM; in data set [8], 0.69 µM.

Take `CNC(=O)NCC1CCN(Cc2cc(Oc3ccc(N4CCN(CCC(=O)O)CC4)nc3)nc(-c3cc(Cl)cc(Cl)c3)c2)CC1`: the inhibition in vivo at 10 mg/kg in the data set with Mus musculus [9] worked out at 67%; in the data set with Mus musculus [10], 39%. At Furin [6], this compound had a pXC50 of 7.6.

On Furin [3], `CSc1oc(-c2ccc(Cl)cc2Cl)nc1[P+](c1ccccc1)(c1ccccc1)c1ccccc1` registered a Ki of 1570 nM. Inhibition in [11] was half-maximal at 1.7 µM (IC50).

As to `CC(=O)N[C@@H](CC(C)C)C(=O)N[C@@H](CC(C)C)C(=O)N[C@@H](CC(C)C)C(=O)N[C@@H](CC(C)C)C(=O)N[C@@H](CCCNC(=N)N)C(=O)N[C@H](C(=O)N[C@@H](CCCCN)C(=O)N[C@@H](CCCNC(=N)N)C(N)=O)C(C)C` (Ac-LLLLRVKR-NH2), the IC50 in data set [12] was determined as 0.03 µM; against Furin [3], 0.02 µM.

`CC(C)(C)[C@H](NC(=O)[C@H](CCCNC(=N)N)NC(=O)Cc1ccc(CNC(=N)N)cc1)C(=O)N[C@@H](CCCNC(=N)N)C(=O)NCc1ccc(C(=N)N)c(F)c1` came in with a pKa in data set [2] of 9.46. At Furin [3], this compound registered an IC50 of 0.00056 µM and a Ki of 0.0223 nM.

Compound `CC(C)(C)[C@H](NC(=O)[C@H](CCCNC(=N)N)NC(=O)Cc1ccc(CNC(=N)N)cc1)C(=O)N[C@@H](CCCNC(=N)N)C(=O)NCc1ccc(N)nc1` returned a pKa in data set [2] of 6.5. Further, on Furin [3], half-maximal inhibition (IC50) required 0.00298 µM and the affinity corresponds to a Ki of 0.8 nM.

Take `CC(=O)NCC1CCN(Cc2cc(Oc3ccc(N4CCN(CCC(=O)O)CC4)nc3)nc(-c3cc(Cl)cc(Cl)c3)c2)CC1`: the figures for the inhibition in vivo at 10 mg/kg with Mus musculus [4] and in the data set on Mus musculus [5] were 69% and 67%, respectively. On Furin [6], the pXC50 is 7.6.

With `CC(=O)NCC1CCN(Cc2cc(Oc3ccc(N4CCN(CCO)CC4)nc3)nc(-c3cc(Cl)cc(Cl)c3)c2)CC1`, the inhibition in vivo at 10 mg/kg in the data set with Mus musculus [9] is 60%; with Mus musculus [10], 56%. The compound also had a pXC50 on Furin [6] of 8.5.

For `CC(C)(C)[C@H](NC(=O)[C@H](CCCNC(=N)N)NC(=O)Cc1ccc(CNC(=N)N)cc1)C(=O)N[C@@H](CCCNC(=N)N)C(=O)NCc1ccc(C(=N)N)cc1`, in data set [8], the Ki was 0.052 µM.

Turning to `CC(CC1CCN(Cc2cc(Oc3cnc(N4CCN(C)CC4)nc3)nc(-c3cc(Cl)cc(Cl)c3)c2)CC1)C(=O)O` (centres undefined), the inhibition in vivo at 10 mg/kg in the data set with Mus musculus [13] was found to be 81%; with Mus musculus [14], 54%. The pXC50 at Furin [6] came to 8. At Furin [15], this compound showed an IC50 of 0.000794 µM.

In the case of `CC(=O)N[C@@H](CCCNC(=N)N)C(=O)N[C@@H](C)C(=O)N[C@@H](CCCNC(=N)N)C(=O)N[C@@H](CCCNC(=N)N)C(=O)N[C@@H](CCCNC(=N)N)C(=O)N[C@@H](CCCCN)C(=O)N[C@@H](CCCCN)C(=O)N[C@@H](CCCNC(=N)N)C(=O)N[C@H](C(N)=O)[C@@H](C)O`, the IC50 with Vero is more than 1000 µM. Besides, the half-life in [16] was 1.7 h. The Ki at Furin [3] was found to be 19 nM; at Furin [18], 0.019 µM. For the same compound, in data set [17], the remaining at 24 h stood at 5%.

What is called Ki is a measure of affinity in units of concentration, obtained from inhibition or displacement. One may read the pKa as the negative logarithm of the acid dissociation constant. One may read the IC50 as the midpoint of a concentration-inhibition curve. In general, inhibition in vivo refers to the relative decrease from the control value, in per cent. As usually defined, the half-life is the time in which the quantity being followed falls by half.

(Values after ChEMBL document CHEMBL5150003, “Why All the Fury over Furin?” (J Med Chem, 2022).)
